Values of other authors, collected in patent US11504326B2, “Lipid emulsion therapy for treating acute cannabinoid intoxication” (priority 2019, dated 2022).
Read-outs that look alike come from different tables or passages of the source.

Columns and labels:
[1] = in vivo
psychoactive effects = settings: for dose that impairs attention, concentration, short-term memory, and executive functioning: adolescents and adults

CCCCCc1cc(O)c2c(c1)OC(C)(C)[C@@H]1CCC(C)=C[C@@H]21 [THC, tetrahydrocannabinol]
protein-bound [1]: 95-99%
volume of distribution [1]: 2.5 to 3.5 L/kg
dose that impairs attention, concentration, short-term memory, and executive functioning (psychoactive effects; ingested): 5 to 20 mg
dose at which psychotropic effects occur (psychoactive effects; ingested, naive users): 5 to 20 mg
dose that impairs attention, concentration, short-term memory, and executive functioning (psychoactive effects; inhaled): 2 to 3 mg
dose sufficient to produce drug effects (psychoactive effects; inhaled, naïve user): 2 to 3 mg
